Entries after “also recorded” stand apart in the source; their conditions may differ. Counter-ions that a name gives are not always drawn.
Tests used:
S180 sarcoma of mice [1] = experiment: Tumor inhibiting effect of LQC-Y2 in tumor bearing S180 mice
Procedure: The S180 mice that had been inoculated for 7 days were killed by breaking the neck thereof and ascites was taken from the mice respectively in an aseptic environment and the ascites was washed using RPMI1640 culture medium for 2 times and then made into a […] /ml cell suspension using aseptic physiological saline. Then the obtained S180 cell suspension was inoculated hypodermically at the right axillary of mice, 0.1 ml for each mouse and 50 mice total, to establish the solid tumor model.
(§1) 60 mice were divided into 2 categories, including 6 groups, according to the random number table method, i.e. normal control group of the first category, and S180 solid tumor groups of the second category which included positive (cyclophosphamide) control group, negative control group, small dosage group, middle dosage group and large dosage group, 10 mice for each group. The experiment was repeated for 3 times.
LQC-Y2 was made into an emulsion using corn oil. The dosage of the small dosage group was 75 mg/Kg, the dosage of the middle dosage group was 150 mg/Kg, and the dosage of the large dosage group was 300 mg/kg. Equal volume of corn oil was injected into the mice of the negative control group, cyclophosphamide injection 0.02 g/(Kg.d) was injected into the mice of the positive control group. These medicines were administrated 0.1 ml per mouse by intraperitoneal injection every the other day continuously for 15 days. During this period, the common behavior, hair and excrement and so on were observed daily. The mice that had been inoculated with S180 by hypodermic inoculation were killed by breaking the necks thereof after 24 h after the last administration and the tumor, liver and spleen were then taken.
(§2) The weight of the solid tumor group mice were measured after all the administration was over and then the mice were killed. The spleens and the livers thereof were weighed by an electronic balance. The spleen index was calculated as the spleen weight of a mouse (mg)/the body weight of a mouse(g) and the liver index was calculated as the liver weight of a mouse(100 g)/the body weight of a mouse(g).
(§3) The solid tumor negative control group mice were weighed on the next day after the administration was finished (the eyeballs of the mice were removed to bleed and the serum was collected for subsequent experimental use). Then the mice were killed by breaking the neck thereof. The tumor tissues were taken out and weighed by an electronic balance to calculate the tumor-inhibiting ratio.
(§4) All the data were statistically analyzed using SPSS11.0 software pack. The comparison of the enumeration data was carried out with X^2 test. P<0.05 had statistical significance.

S180 sarcoma of mice [2] = experiment: Tumor inhibiting effect of LQC-Y3 on tumor bearing S180 mice
Procedure: The S180 mice that had been inoculated for 7 days were killed by breaking the neck thereof and ascites was taken from the mice respectively in an aseptic environment and the ascites was washed using RPMI1640 culture medium for 2 times and then made into a 2×10^7/ml cell suspension using aseptic physiological saline. Then the obtained S180 cell suspension was inoculated hypodermically at the right axillary of mice, 0.1 ml for each mouse and 50 mice total, to establish the solid tumor model.
as §1
LQC-Y3 was prepared using 0.5% CMC-Na. The dosage of the small dosage group was 75 mg/Kg, the dosage of the middle dosage group was 150 mg/Kg, and the dosage of the large dosage group was 300 mg/kg. Equal volume of 0.5% CMC-Na was injected into the mice of the negative control group and cyclophosphamide injection 0.02 g/(Kg.d) was injected into the mice of the positive control group. These medicines were administrated 0.1 ml per mouse by intraperitoneal injection every the other day continuously for 15 days. During this period, the common behavior, hair, excrement and so on were observed daily. The mice that had been inoculated with S180 by hypodermic inoculation were killed by breaking the neck thereof after 24 h after the last administration and the tumor, liver and spleen were then taken.
as §2, with “finished” for “over”, “mouse (g)” for “mouse(g)”, “mouse (100” for “mouse(100”, “mouse (g).” for “mouse(g).”
as §3, with “tumor inhibiting” for “tumor-inhibiting”
as §4

[3] = test system: Human hepatoma carcinoma cells Bel7402; experiment: Proliferation of human hepatoma carcinoma cells Bel7402 by MTT; format: cell-based; settings: 40 μg/ml
[4] = test system: Human hepatoma carcinoma cells Bel7402; experiment: as above; format: cell-based; settings: for 24 h inhibition ratio (%): Bel7402 cells; for inhibiting effect on the proliferation of Bel7402 cells: cultured in vitro, 10-40 μg/ml
Procedure: Human hepatoma carcinoma cells Bel7402 were recovered and subcultured using a culture flask. The preparation of the experiment was started when the cell growth entered into the exponential growth phase. The cells were then digested using pancreatic enzyme which had been filtrated at an increased pressure to prepare the cell suspension. After that the suspension was dyed for 3 min with 0.4% trypan blue. Then a blood cell counting plate was used to count the living cells which were not dyed and the dead cells which were dyed to blue. The number of the living cells identified by trypan blue was more than 98%.
Three kinds of cells which were in the exponential growth phase were inoculated at the density of 1×10^4/ml, to a 96-well plate, 200 μl for each well. Then the plate was put in a 37° C. 5% CO2 incubation box to be cultured for 24 h. The cultivation liquid was sucked away and 200 μl LQC-Y solutions of different concentrations were added thereinto (prepared with DMEM cultivation liquid containing 4% calf serum and the final concentration of which respectively were 10 μg, 20 μg, 40 μg), 4 parallel wells for each concentration. Supernatant cultivation liquid 100 μl was sucked away carefully from each well after being cultured for 24 h and 48 h, and MTS 20 μl was added into each well and homogeneously mixed. The resultant liquid was cultured in a 37° C. 5% CO2 incubation box for a further 1 h. An enzyme-labeling quantitative instrument was used to measure the absorbance at 492 nm. The experiment was repeated for 3 times and then an inhibition ratio was calculated.
The inhibition ratio of cell proliferation (%)=[(average OD value of control group-average OD value of the administration group)/average OD value of control group]×100%

ICR white mice = experiment: Acute toxic experiment of mice by oral administration; format: in vivo; design: key to Animal reaction in 14 days after the administration: Appearance / Animal reaction in 14 days after the administration: Behavior / Animal reaction in 14 days after the administration: Hair / Animal reaction in 14 days after the administration: Respiration / Animal reaction in 14 days after the administration: Posture / Animal reaction in 14 days after the administration: Reaction: ✓ means normal; settings: for Animal reaction in 14 days after the administration: Death: 10 animals; for Animal reaction in 14 days after the administration: Death / Animal reaction in 14 days after the administration: Appearance / Animal reaction in 14 days after the administration: Behavior / Animal reaction in 14 days after the administration: Hair / Animal reaction in 14 days after the administration: Posture / Animal reaction in 14 days after the administration: Reaction / Animal reaction in 14 days after the administration: Respiration: oral 3 x 2000 mg/kg (6000 mg/kg) in one day
Procedure: 1. Experimental Project: Acute Toxic Experiment of Mice by Oral Administration
ICR white mice (half female and half male, 18-22 g, experiment animal certificate No.: SCXK (Jing) 2006-0009);
LQC-Y3 (white powder (self prepared); and LQC-Y3 5000 mg was dissolved into 0.5% sodium carboxymethyl cellulose 100 ml and then suspended by supersonic wave. The suspension was used in situ).
The qualified animals were quarantined and weighed before the administration. Then the animals were divided into groups randomly by weight. The intragastric administration tool for mice was used to carry out the intragastric administration. The mice were fasted but not water-deprived (continuously for 14 h) overnight before being administrated. The mice were administrated at 9:00 AM for the first time (2000 mg/kg) on the present administration day and observed continuously for 1 h. The mice were administrated for the second time (2000 mg/kg) at an interval of 6 h since the first administration and observed continuously for 1 h. The mice were administrated for the third time (2000 mg/kg) at an interval of 6 h since the second administration, observed continuously for 1 h and then the mice were fed.

[5] = S180 Balb/C mice, cyclophosphamide 0.02 g/(Kg.d) i.p., 15 days
[6] = S180 mice, cyclophosphamide 0.02 g/(Kg.d) i.p., 15 days
[7] = S180 Balb/C mice, large dosage 300 mg/kg i.p. every other day, 15 days
[8] = S180 Balb/C mice, middle dosage 150 mg/Kg i.p. every other day, 15 days
[9] = S180 Balb/C mice, small dosage 75 mg/Kg i.p. every other day, 15 days

Compound: O=P1(N(CCCl)CCCl)NCCCO1 (stereo not shown) [Cyclophosphamide, reference compound]
- liver index compared with the negative control group (S180 sarcoma of mice [1]; LQC-Y2 dosage groups, cyclophosphamide 0.02 g/(Kg.d)): smaller than those of the negative control group
- Tumor inhibiting ratio (%) (S180 sarcoma of mice [1]; [5]): 88.55%
- Tumor weight (g) (S180 sarcoma of mice [1]; [5]): 0.15 ± 0.13^(4) g
- Weight growth (g) (S180 sarcoma of mice [1]; [5]): 8.98 ± 3.80^(1)(3) g
- Spleen index (100 g/g) (S180 sarcoma of mice [1]; [6]): 5.29 ± 0.47^(1)(4) 100 g/g
- liver index compared with the negative control group (S180 sarcoma of mice [2]; LQC-Y3 dosage groups, cyclophosphamide 0.02 g/(Kg.d)): smaller than those of the negative control group
- Tumor inhibiting ratio (%) (S180 sarcoma of mice [2]; [5]): 73.40%
- Tumor weight (g) (S180 sarcoma of mice [2]; [5]): 0.25 ± 0.16^(4) g
- Weight growth (g) (S180 sarcoma of mice [2]; [5]): 6.90 ± 2.04^(1)(3) g
- Liver index (100 g/g) (S180 sarcoma of mice [2]; [6]): 5.19 ± 0.33 100 g/g

Compound: Cc1nc(C)c(COC(=O)CCC(C)C2CCC3C4C(O)CC5CC(O)CCC5(C)C4CC(O)C23C)nc1C (stereo not shown) [LQC-Y1, (3,5,6-trimethyl pyrazine-2-yl)methyl-4-(3,7,12-trihydroxy-10,13-dimethylhexadecahydro-1H-cyclopenta[a]phenanthren-17-yl)pentanoate]
- 24 h inhibition ratio (%) [3]: 86.44%
- 24 h inhibition ratio (%) ([4]; 10 μg/ml): 67.39%
- 24 h inhibition ratio (%) ([4]; 20 μg/ml): 76.66%
- inhibiting effect on the proliferation of Bel7402 cells [4]: evident inhibiting effect

Compound: Cc1nc(C)c(COC(=O)C23CCC(C)(C)CC2C2=CCC4C5(C)CCC(O)C(C)(C)C5CCC4(C)C2(C)CC3)nc1C (stereo not shown) [LQC-Y3, (3,5,6-trimethyl pyrazine-2-yl)methyl-10-hydroxy-2,2,6a,6b,9,9,12a-heptamethyl-1,2,3,4,4a,5,6,6a,6b,7,8,8a,9,10,11,12,12a,12b,13,14b-eicosahydropicene-4a-carboxylate]
- toxic reaction (ICR white mice; mice, maximum dosage of 6000 mg/kg per day, oral, observed continuously for 14 days, 6000 mg/kg/day): No toxic reaction; also recorded: no toxic or side effect
- Animal reaction in 14 days after the administration: Death (ICR white mice; ♀ ICR mice): 0
- Animal reaction in 14 days after the administration: Appearance (ICR white mice; ♀ ICR mice): ✓
- Animal reaction in 14 days after the administration: Behavior (ICR white mice; ♀ ICR mice): ✓
- Animal reaction in 14 days after the administration: Hair (ICR white mice; ♀ ICR mice): ✓
- Animal reaction in 14 days after the administration: Posture (ICR white mice; ♀ ICR mice): ✓
- Animal reaction in 14 days after the administration: Reaction (ICR white mice; ♀ ICR mice): ✓
- Animal reaction in 14 days after the administration: Respiration (ICR white mice; ♀ ICR mice): ✓
- Animal reaction in 14 days after the administration: Death (ICR white mice; ♂ ICR mice): 0
- Animal reaction in 14 days after the administration: Appearance (ICR white mice; ♂ ICR mice): ✓
- Animal reaction in 14 days after the administration: Behavior (ICR white mice; ♂ ICR mice): ✓
- Animal reaction in 14 days after the administration: Hair (ICR white mice; ♂ ICR mice): ✓
- Animal reaction in 14 days after the administration: Posture (ICR white mice; ♂ ICR mice): ✓
- Animal reaction in 14 days after the administration: Reaction (ICR white mice; ♂ ICR mice): ✓
- Animal reaction in 14 days after the administration: Respiration (ICR white mice; ♂ ICR mice): ✓
- 24 h inhibition ratio (%) [3]: 99.16%
- effect on the growth of the S180 mice sarcoma (S180 sarcoma of mice [2]; 75-300 mg/kg i.p.): can Notably Inhibit the Growth; also recorded: inhibit the growth of S180 tumor effectively
- Tumor inhibiting ratio (%) (S180 sarcoma of mice [2]; [7]): 50.0%
- Tumor weight (g) (S180 sarcoma of mice [2]; [7]): 0.47 ± 0.23^(3) g
- Tumor inhibiting ratio (%) (S180 sarcoma of mice [2]; [8]): 37.23%
- Tumor weight (S180 sarcoma of mice [2]; [8]): 0.59 ± 0.28 g
- Tumor inhibiting ratio (%) (S180 sarcoma of mice [2]; [9]): 33.98%
- Tumor weight (S180 sarcoma of mice [2]; [9]): 0.63 ± 0.30 g
- effect on the growth of the S180 sarcoma mice's weight (S180 sarcoma of mice [2]; mouse, in vivo): no effect
- 24 h inhibition ratio (%) ([4]; 10 μg/ml): 34.53%
- 24 h inhibition ratio (%) ([4]; 20 μg/ml): 89.07%
- inhibiting effect on the proliferation of Bel7402 cells [4]: evident inhibiting effect

Compound: Cc1nc(C)c(COC(=O)C2(C)CCC3(C)CCC4(C)C(=CC(=O)C5C6(C)CCC(O)C(C)(C)C6CCC54C)C3C2)nc1C (stereo not shown) [LQC-Y4, (3,5,6-trimethyl pyrazine-2-yl)methyl-10-hydroxy-2,4a,6a,6b,9,9,12a-heptamethyl-13-oxo-1,2,3,4,4a,5,6,6a,6b,7,8,8a,9,10,11,12,12a,12b,13,14b-eicosahydropicene-2-carboxylate]
- 24 h inhibition ratio (%) [3]: 94.42%
- 24 h inhibition ratio (%) ([4]; 10 μg/ml): 39.31%
- 24 h inhibition ratio (%) ([4]; 20 μg/ml): 44.58%
- inhibiting effect on the proliferation of Bel7402 cells [4]: evident inhibiting effect

Compound: Cc1nc(C)c(COC(=O)c2cc(O)c3c(c2)C(=O)c2cccc(O)c2C3=O)nc1C [LQC-Y6, (3,5,6-trimethyl pyrazine-2-yl)methyl-4,5-dihydroxy-9,10-dioxo-9,10-dihydroanthracene-2-carboxylate]
- 24 h inhibition ratio (%) [3]: 81.21%
- 24 h inhibition ratio (%) ([4]; 10 μg/ml): 26.75%
- 24 h inhibition ratio (%) ([4]; 20 μg/ml): 67.23%
- inhibiting effect on the proliferation of Bel7402 cells [4]: inhibiting effect

Compound: Cc1nc(C)c(COC(=O)C2=CC(O)C(O)C(O)C2)nc1C (stereo not shown) [LQC-Y10, (3,5,6-trimethyl pyrazine-2-yl)methyl 3,4,5-trihydroxycyclohexyl-1-ene formate]
- 24 h inhibition ratio (%) [3]: 5.69%
- 24 h inhibition ratio (%) ([4]; 20 μg/ml): 7.82%
- inhibiting effect on the proliferation of Bel7402 cells [4]: inhibiting effect

Source: patent US9321804B2, “Synthesis and use of anti-tumor drug LQC-Y” (Beijing University of Chinese Medicine, priority 2011, dated 2016)
